Assay results published in US20250332167A1, “PHARMACEUTICAL USE OF CDK 4/6 INHIBITOR” (priority 2021, published 2025).
“And” between values parts separate entries of the source, which are not always exact repeats. Identical values can stand only once.

Assays:
NCI-H1703 = experiment: Proliferation inhibition, non-small cell lung cancer cell line NCI-H1703; assay type: cell-based; conditions: Homo sapiens, NCI-H1703, 72 h
Procedure: (§1) Sixteen non-small cell lung cancer cell lines, including NCI-H1792, NCI-H1703, NCI-H441, SNU-761, NCI-H1975, NCI-H358, NCI-H1838, NCI-H1915, A549, SK-MES-1, NCI-H292, PC-9, NCI-H460, NCI-H23, NCI-H1581, and HLF, were used for the proliferation inhibition assay of the present invention compound. […] The cell detection equipment used was In Cell Analyzer 2200 (GE Healthcare).
(§2) With 60 μM as the initial concentration, ten points were obtained by serial five-fold dilution.
(§3) Each kind of cell in logarithmic growth phase was inoculated with 4000 cells/100 μl/well into a black transparent bottom 96-well plate and cultured overnight at 37° C. The next day, the plate was taken out, and 20 μL of the prepared sample dilutions was added to each well. The plate was then subjected to treatment at 37° C. for 72 hours. After the treatment period of 72 hours, the plate was taken out and 50 μL of neutral formaldehyde fixative (formaldehyde: PBS=1:9, 50 μl/well) was added to each well. The plate was then fixed at room temperature for 10-30 minutes. Subsequently, the wells were washed twice with 1× PBS (100 μl/well) and treated with 0.2% Triton™-X100 for 5-10 minutes to permeabilize the cells. […] The inhibitory rates of each compound at different concentration points were calculated by using the following formula, and IC50 values were obtained through curve fitting using GraphPad Prism 6.0 software.

U118MG cells = experiment: Proliferation inhibition of human glioblastoma cells U118MG (DAPI cell count, 72 h); assay type: cell-based; conditions: U-118-MG, 72 h treatment
Procedure: Human glioblastoma cell U118MG was purchased from NANJING COBIOER BIOSCIENCES CO., LTD. […] The cell detection equipment used was the In Cell Analyzer 2200 (GE Healthcare).
as §2
Medium for U118 MG is the MEM (low glucose) medium supplemented with 10% FBS, 1% penicillin/streptomycin, 1% sodium pyruvate, and 1% MEM NEAA. U118 MG cells were seeded at a density of 4000 cells/100 μL/well in a 96-well black clear-bottom plate and incubated at 37° C. overnight. The plate was then taken, and 20 μL of the prepared diluted samples was added to the wells. The cells were treated at 37° C. for 72 hours. After 72 hours, the plate was taken, and a neutral formaldehyde fixation solution (formaldehyde:PBS=1:9) was added at 50 μL/well. The cells were fixed at room temperature for 10-30 minutes. The wells were washed twice with 1× PBS (100 μL/well), and then permeabilized with 0.2% Triton™-X100 for 5-10 minutes (100 μL/well). […] The plate was scanned by using an In Cell Analyzer, and the number of cells in each well was analyzed. The inhibition rate of each compound at various concentration points was calculated by using the formula provided. The IC50 values were determined by curve fitting using GraphPad Prism 6.0 software.

NCI-H358 = experiment: Proliferation inhibition, non-small cell lung cancer cell line NCI-H358; assay type: cell-based; conditions: Homo sapiens, NCI-H358, 72 h
Procedure: as §1, §2, §3

NCI-H1975 xenograft = experiment: Human non-small cell lung cancer NCI-H1975 xenograft mouse model; assay type: in vivo, Balb/c nude mice; conditions: 25 mg/kg oral gavage once daily
Source text: (§4) The formula for calculating tumor volume was: Tumor Volume (mm^3)=½×(a×b^2) (where “a” represents the long diameter and “b” represents the short diameter).
(§5) The relative tumor growth rate (T/C) is the percentage value of the relative tumor volume or weight between the treatment group and the control group at a certain time point. The calculation formula is as follows: • T/C(%)=TRTV/CRTV×100% (TRTV: Average RTV of the treatment group; CRTV: Average RTV of the Vehicle group; RTV=Vt/V0, where V0 is the tumor volume of the animal at the time of grouping and Vt is the tumor volume of the animal after treatment).
(§6) (T and C are the relative tumor volume (RTV) or weight (TW) of the treatment group and control group at a specific time point, respectively).
NCI-H1975 cells were cultured in RPMI1640 medium containing 10% fetal bovine serum. Log-phase NCI-H1975 cells were collected, suspended in PBS to an appropriate concentration, and used for subcutaneous tumor implantation in Balb/c nude mice. Each female mouse was implanted with 0.1 ml of NCI-H1975 cells subcutaneously. When the average tumor volume reached 171 mm^3, the mice were randomly divided into groups based on tumor size.
The positive control drugs were Palbociclib and Abemaciclib.
Each group consisted of 8 mice, and oral gavage administration was performed once daily for a total of 21 days. Tumor volume and body weight changes were observed regularly, and efficacy evaluation was conducted based on relative tumor proliferation rate (T/C) and relative tumor growth inhibition rate (TGI). The calculation methods for tumor volume, T/C, and TGI are described in Example 3.

NCI-H1838 = experiment: Proliferation inhibition, non-small cell lung cancer cell line NCI-H1838; assay type: cell-based; conditions: Homo sapiens, NCI-H1838, 72 h
Procedure: as §1, §2, §3

NCI-H1792 = experiment: Proliferation inhibition, non-small cell lung cancer cell line NCI-H1792; assay type: cell-based; conditions: Homo sapiens, NCI-H1792, 72 h
Procedure: as §1, §2, §3

NCI-H441 = experiment: Proliferation inhibition, non-small cell lung cancer cell line NCI-H441; assay type: cell-based; conditions: Homo sapiens, NCI-H441, 72 h
Procedure: as §1, §2, §3

SNU-761 = experiment: Proliferation inhibition, non-small cell lung cancer cell line SNU-761; assay type: cell-based; conditions: Homo sapiens; SNU-761, 72 h
Procedure: as §1, §2, §3

[1] = tested on: Human glioblastoma model (BN2289); experiment: Human glioblastoma xenograft mouse model (BN2289); assay type: in vivo, BALB/C nude mice; conditions: 25 mg/kg oral gavage once daily, day 21
Source text: Human glioblastoma model (BN2289, Crown Bioscience Co., Ltd.) tumor fragments were cut into small pieces with a diameter of 2-3 mm and subcutaneously inoculated into the right side of BALB/C nude mice. Tumor growth was monitored regularly, and when the tumors grew to an average volume of approximately 100-200 mm^3, mice were randomly divided into groups based on the tumor size.
Each group consisted of 8 mice and received oral gavage administration once daily for a total of 28 days. Regular observations were made on tumor volume and changes in body weight. Efficacy evaluation was conducted based on the relative tumor growth rate (T/C) and the relative tumor inhibition rate (TGI).
as §4, §5, §6

Row | SMILES | IC50 (NCI-H1703) | IC50 (U118MG cells) | IC50 (NCI-H358) | T/C (NCI-H1975 xenograft; 16 days after administration) | TGI (NCI-H1975 xenograft; 16 days after administration) | Tumor volume (x ± S) (NCI-H1975 xenograft; 16 days after administration) | IC50 (NCI-H1838) | IC50 (NCI-H1792) | IC50 (NCI-H441) | IC50 (SNU-761) | Day 21 Tumor Volume [1] | Tumor relative volume (x ± S) (NCI-H1975 xenograft; 16 days after administration) | Body weight change (NCI-H1975 xenograft; Day 20 of treatment) | Relative Average Tumor Volume [1] | T/C (relative tumor growth rate) [1] | TGI (relative tumor inhibition rate) [1]
1 | CCN1CCN(Cc2ccc(Nc3ncc(F)c(-c4cc(F)c5nc(C)n(C(C)C)c5c4)n3)nc2)CC1 [Abemaciclib, reference compound] | 93 nM | 86 ± 22.9 nM | 44 nM | 93% | 7% | 2071 mm^3 and 2071 ± 148 mm^3 | 90.2 nM | 23 nM | 40 nM | 54 nM | 1627.31 ± 100.66 mm^3 | – | – | – | – | –
2 | CC(=O)c1c(C)c2cnc(Nc3ccc(N4CCNCC4)cn3)nc2n(C2CCCC2)c1=O [Palbociclib, reference compound] | – | – | – | 66% | 34% | 1469 mm^3 and 1469 ± 146 mm^3 | – | – | – | – | 1417.98 ± 121.86 mm^3 | 7.7 ± 1.0 | slight decrease in body weight | 9.58 | 66.01% | 33.99%
